Assay results taken from patent US20070185149A1, “Novel amido-substituted hydroxy-6-phenylphenanthridines and their use as pde4 inhibtors” (ALTANA PHARMA AG, priority 2004, published 2007).

target: T1, PDE4B2 (Homo sapiens, UniProt Q07343); assay: Inhibition of PDE4 activity: PDE4B2 [3H]cAMP SPA enzyme assay; assay type: biochemical; details: recombinant PDE4B2 (SF21 cell supernatant), modified SPA test, 0.5 μM cAMP, 15 min at 37° C.; read-out: Inhibition of the PDE4 activity, −log IC50 (converted)
T1 construct: made in house; host or cells: SF21 insect cells (baculovirus; virus prepared in SF9 cells)
Method: The PDE4B2 (GB no. M97515) was a gift of Prof. M. Conti (Stanford University, USA). It was amplified from the original plasmid (pCMV5) via PCR with primers Rb9 (5′-[…]-3′) and Rb10 (5′-[…]-3′) and cloned into the pCR-Bac vector (Invitrogen, Groningen, NL).
The recombinant baculovirus was prepared by means of homologous recombination in SF9 insect cells.
The expression plasmid was cotransfected with Bac-N-Blue (Invitrogen, Groningen, NL) or Baculo-Gold DNA (Pharmingen, Hamburg) using a standard protocol (Pharmingen, Hamburg). Wt virus-free recombinant virus supernatant was selected using plaque assay methods. After that, high-titre virus supernatant was prepared by amplifying 3 times. PDE was expressed in SF21 cells by infecting 2×10^6 cells/ml with an MOI (multiplicity of infection) between 1 and 10 in serum-free SF900 medium (Life Technologies, Paisley, UK). The cells were cultured at 28° C. for 48-72 hours, after which they were pelleted for 5-10 min at 1000 g and 4° C.
The SF21 insect cells were resuspended, at a concentration of approx. 10^7 cells/ml, in ice-cold (4° C.) homogenization buffer (20 mM Tris, pH 8.2, containing the following additions: 140 mM NaCl, 3.8 mM KCl, 1 mM EGTA, 1 mM MgCl2, 10 mM β-mercaptoethanol, 2 mM benzamidine, 0.4 mM Pefablock, 10 μM leupeptin, 10 μM pepstatin A, 5 μM trypsin inhibitor) and disrupted by ultrasonication. The homogenate was then centrifuged for 10 min at 1000×g and the supernatant was stored at −80° C. until subsequent use (see below). The protein content was determined by the Bradford method (BioRad, Munich) using BSA as the standard.
PDE4B2 activity is inhibited by the said compounds in a modified SPA (scintillation proximity assay) test, supplied by Amersham Biosciences (see procedural instructions “phosphodiesterase [3H]cAMP SPA enzyme assay, code TRKQ 7090”), carried out in 96-well microtitre plates (MTP's). The test volume is 100 μl and contains 20 mM Tris buffer (pH 7.4), 0.1 mg of BSA (bovine serum albumin)/ml, 5 mM Mg^2+, 0.5 μM cAMP (including about 50,000 cpm of [3H]cAMP), 1 μl of the respective substance dilution in DMSO and sufficient recombinant PDE (1000×g supernatant, see above) to ensure that 10-20% of the cAMP is converted under the said experimental conditions. […] After a preincubation of 5 min at 37° C., the reaction is started by adding the substrate (cAMP) and the assay is incubated for a further 15 min; after that, it is stopped by adding SPA beads (50 μl). In accordance with the manufacturer's instructions, the SPA beads had previously been resuspended in water, but were then diluted 1:3 (v/v) in water; the diluted solution also contains 3 mM IBMX to ensure a complete PDE activity stop. After the beads have been sedimented (>30 min), the MTP's are analyzed in commercially available […]. The corresponding IC50 values of the compounds for the inhibition of PDE activity are determined from the concentration-effect curves by means of non-linear regression.

T1 sequence (Q07343 1-564 isoform Q07343-2): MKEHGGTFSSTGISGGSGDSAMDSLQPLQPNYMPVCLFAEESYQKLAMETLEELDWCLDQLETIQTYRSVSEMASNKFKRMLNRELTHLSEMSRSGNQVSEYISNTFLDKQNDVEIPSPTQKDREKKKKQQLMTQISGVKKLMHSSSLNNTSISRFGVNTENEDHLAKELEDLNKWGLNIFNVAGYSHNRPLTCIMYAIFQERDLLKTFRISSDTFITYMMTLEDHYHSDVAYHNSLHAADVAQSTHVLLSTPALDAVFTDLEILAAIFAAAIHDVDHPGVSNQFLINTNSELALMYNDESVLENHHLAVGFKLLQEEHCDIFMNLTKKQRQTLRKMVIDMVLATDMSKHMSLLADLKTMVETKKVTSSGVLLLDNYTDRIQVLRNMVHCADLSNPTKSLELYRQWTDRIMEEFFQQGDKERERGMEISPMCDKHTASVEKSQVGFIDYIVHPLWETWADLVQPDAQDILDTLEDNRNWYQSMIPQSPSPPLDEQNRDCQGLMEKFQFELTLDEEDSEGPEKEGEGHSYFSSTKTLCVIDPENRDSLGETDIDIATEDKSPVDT

IC50, 0.955 to 8.71 nM:
COc1cc2c(cc1OC(F)F)[C@H]1C[C@H](O)CC[C@H]1N=C2c1ccc(C(=O)N(C)C)cc1 (racemic) [Compound 24, 4-[(2RS,4aRS,10bRS)-9-(1,1-Difluoro-methoxy)-2-hydroxy-8-methoxy-1,2,3,4,4a,10b-hexahydro-phenanthridin-6-yl]-N,N-dimethyl-benzamide]
COc1cc2c(cc1OC(F)F)[C@H]1C[C@H](O)CC[C@H]1N=C2c1ccc(C(=O)N2CCN(c3ccncc3)CC2)cc1 (racemic) [Compound 30, 1-{4-[(2RS,4aRS,10bRS)-9-(1,1-Difluoro-methoxy)-2-hydroxy-8-methoxy-1,2,3,4,4a,10b-hexahydro-phenanthridin-6-yl]-phenyl}-1-(4-pyridin-4-yl-piperazin-1-yl)-methanone]
COc1cc2c(cc1OC)[C@H]1C[C@H](O)CC[C@H]1N=C2c1ccc(C(=O)NCCc2ccncc2)cc1 (racemic) [Compound 20, 4-((2RS,4aRS,10bRS)-2-Hydroxy-8,9-dimethoxy-1,2,3,4,4a,10b-hexahydro-phenanthridin-6-yl)-N-(2-pyridin-4-yl-ethyl)-benzamide]
CCN(CCOC)C(=O)c1ccc(C2=NC3CCC(O)CC3c3cc(OC)c(OC)cc32)cc1 (stereo not drawn) [Compound 10]
COc1cc2c(cc1OC)[C@H]1C[C@H](O)CC[C@H]1N=C2c1ccc(C(=O)Nc2cnc3ccccc3c2)cc1 (racemic) [Compound 6, 4-((2RS,4aRS,10bRS)-2-Hydroxy-8,9-dimethoxy-1,2,3,4,4a,10b-hexahydro-phenanthridin-6-yl)-N-quinolin-3-yl-benzamide]
COCCN(CCOC)C(=O)c1ccc(C2=N[C@@H]3CC[C@@H](O)C[C@@H]3c3cc(OC(F)F)c(OC)cc32)cc1 (racemic) [Compound 26, 4-[(2RS,4aRS,10bRS)-9-(1,1-Difluoro-methoxy)-2-hydroxy-8-methoxy-1,2,3,4,4a,10b-hexahydro-phenanthridin-6-yl]-N,N-bis(2-methoxy-ethyl)-benzamide]
COc1cc2c(cc1OC)C1CC(O)CCC1N=C2c1ccc(C(=O)N2CCN(c3ccccn3)CC2)cc1 (stereo not drawn) [Compound 8]
COc1cc2c(cc1OC(F)F)[C@H]1C[C@H](O)CC[C@H]1N=C2c1ccc(C(=O)N2CCN(CCN(C)C)CC2)cc1 (racemic) [Compound 35, 1-{4-[(2RS,4aRS,10bRS)-9-(1,1-Difluoro-methoxy)-2-hydroxy-8-methoxy-1,2,3,4,4a,10b-hexahydro-phenanthridin-6-yl]-phenyl}-1-[4-(2-dimethylamino-ethyl)-piperazin-1-yl]-methanone]
COc1cc2c(cc1OC)C1CC(O)CCC1N=C2c1ccc(C(=O)NCCN2CCOCC2)cc1 (stereo not drawn) [Compound 1]
COc1cc2c(cc1OC)[C@H]1C[C@H](O)CC[C@H]1N=C2c1ccc(C(=O)N2CCN(CC(=O)Nc3ccccn3)CC2)cc1 (racemic) [Compound 15, 2-(4-{1-[4-((2RS,4aRS,10bRS)-2-Hydroxy-8,9-dimethoxy-1,2,3,4,4a,10b-hexahydro-phenanthridin-6-yl)-phenyl]-methanoyl}-piperazin-1-yl)-N-pyridin-2-yl-acetamide]
COC(=O)CN(C)C(=O)c1ccc(C2=NC3CCC(O)CC3c3cc(OC)c(OC)cc32)cc1 (stereo not drawn) [Compound 5]
COc1cc2c(cc1OC)C1CC(O)CCC1N=C2c1ccc(C(=O)N2CCN(c3ccncc3)CC2)cc1 (stereo not drawn) [Compound 18]
COc1cc2c(cc1OC(F)F)[C@H]1C[C@H](O)CC[C@H]1N=C2c1ccc(C(=O)NCCN2CCOCC2)cc1 (racemic) [Compound 27, 4-[(2RS,4aRS,10bRS)-9-(1,1-Difluoro-methoxy)-2-hydroxy-8-methoxy-1,2,3,4,4a,10b-hexahydro-phenanthridin-6-yl]-N-(2-morpholin-4-yl-ethyl)-benzamide]
COc1cc2c(cc1OC)[C@H]1C[C@H](O)CC[C@H]1N=C2c1ccc(C(=O)N2CCOCC2)cc1 (racemic) [Compound 19, 1-[4-((2RS,4aRS,10bRS)-2-Hydroxy-8,9-dimethoxy-1,2,3,4,4a,10b-hexahydro-phenanthridin-6-yl)-phenyl]-1-morpholin-4-yl-methanone]
COc1cc2c(cc1OC)[C@H]1C[C@H](O)CC[C@H]1N=C2c1ccc(C(=O)NC2CC2)cc1 (racemic) [Compound 11, N-Cyclopropyl-4-((2RS,4aRS,10bRS)-2-hydroxy-8,9-dimethoxy-1,2,3,4,4a,10b-hexahydro-phenanthridin-6-yl)-benzamide]
COc1cc2c(cc1OC)[C@H]1C[C@H](O)CC[C@H]1N=C2c1ccc(C(=O)NCCc2ccccn2)cc1 (racemic) [Compound 7, 4-((2RS,4aRS,10bRS)-2-Hydroxy-8,9-dimethoxy-1,2,3,4,4a,10b-hexahydro-phenanthridin-6-yl)-N-(2-pyridin-2-yl-ethyl)-benzamide]
COc1cc2c(cc1OC)[C@H]1C[C@H](O)CC[C@H]1N=C2c1ccc(C(=O)N2CCN(CC(=O)N3CCCC3)CC2)cc1 (racemic) [Compound 12, 2-(4-{1-[4-((2RS,4aRS,10bRS)-2-Hydroxy-8,9-dimethoxy-1,2,3,4,4a,10b-hexahydro-phenanthridin-6-yl)-phenyl]-methanoyl}-piperazin-1-yl)-1-pyrrolidin-1-yl-ethanone]
COc1cc2c(cc1OC)[C@H]1C[C@H](O)CC[C@H]1N=C2c1ccc(C(=O)N(C)C)cc1 (racemic) [Compound 14, 4-((2RS,4aRS,10bRS)-2-Hydroxy-8,9-dimethoxy-1,2,3,4,4a,10b-hexahydro-phenanthridin-6-yl)-N,N-dimethyl-benzamide]
COc1cc2c(cc1OC(F)F)[C@H]1C[C@H](O)CC[C@H]1N=C2c1ccc(C(=O)N2CCN(CCN3CCOCC3)CC2)cc1 (racemic) [Compound 29, 1-{4-[(2RS,4aRS,10bRS)-9-(1,1-Difluoro-methoxy)-2-hydroxy-8-methoxy-1,2,3,4,4a,10b-hexahydro-phenanthridin-6-yl]-phenyl}-1-[4(2-morpholin-4-yl-ethyl)-piperazin-1-yl]-methanone]
COc1cc2c(cc1OC(F)F)[C@H]1C[C@H](O)CC[C@H]1N=C2c1ccc(C(=O)N2CCCC2)cc1 (racemic) [Compound 33, 1-{4-[(2RS,4aRS,10bRS)-9-(1,1-Difluoro-methoxy)-2-hydroxy-8-methoxy-1,2,3,4,4a,10b-hexahydro-phenanthridin-6-yl]-phenyl}-1-pyrrolidin-1-yl-methanone]
COc1cc2c(cc1OC(F)F)[C@H]1C[C@H](O)CC[C@H]1N=C2c1ccc(C(=O)NCCCN2CCOCC2)cc1 (racemic) [Compound 28, 4-[(2RS,4aRS,10bRS)-9-(1,1-Difluoro-methoxy)-2-hydroxy-8-methoxy-1,2,3,4,4a,10b-hexahydro-phenanthridin-6-yl]-N-(3-morpholin-4-yl-propyl)-benzamide]
COc1cc2c(cc1OC)C1CC(O)CCC1N=C2c1ccc(C(=O)N2CCN(CC(=O)N(C)C)CC2)cc1 [Compound 16, 2-(4-{1-[4-((2R,4aR,10bR)-2-Hydroxy-8,9-dimethoxy-1,2,3,4,4a,10b-hexahydro-phenanthridin-6-yiyphenyl]-methanoyl}-piperazin-1-yl)-N,N-dimethyl-acetamide]
COc1cc2c(cc1OC)[C@H]1C[C@H](O)CC[C@H]1N=C2c1ccc(C(=O)NCCc2cccnc2)cc1 (racemic) [Compound 21, 4-((2RS,4aRS,10bRS)-2-Hydroxy-8,9-dimethoxy-1,2,3,4,4a,10b-hexahydro-phenanthridin-6-yl)-N-(2-pyridin-3-yl-ethyl)-benzamide]
COc1cc2c(cc1OC)[C@H]1C[C@H](O)CC[C@H]1N=C2c1ccc(C(=O)N2CCN(CC(=O)Nc3cccnc3)CC2)cc1 (racemic) [Compound 13, 2-(4-{1-[4-((2RS,4aRS,10bRS)-2-Hydroxy-8,9-dimethoxy-1,2,3,4,4a,10b-hexahydro-phenanthridin-6-yl)phenyl]methanoyl}-piperazin-1-yl)-N-pyridin-3-yl-acetamide]
